What was measured:
[1] = target: T1, Gal-1 (galectin-1) (Homo sapiens, UniProt P09382); test: ELISA-type inhibition of binding to asialofetuin; settings: read-out: Gal-1 IC50 ± SD [× 10^-6M]^a)
T1 construct: gene LGALS1; ELISA by an established protocol of Elling and co-workers
From the text: ELISA-type inhibition of binding to asialofetuin on Gal-1 (galectin-1)

[2] = target: T2, Gal-3 (galectin-3) (Homo sapiens, UniProt P17931); test: ELISA-type inhibition of binding to asialofetuin; settings: read-out: Gal-3 IC50 ± SD [× 10^-6M]^a)
T2 construct: gene LGALS3; ELISA by an established protocol of Elling and co-workers
From the text: ELISA-type inhibition of binding to asialofetuin on Gal-3 (galectin-3)

[3] = target: T2, Gal-3 (galectin-3); test: ELISA-type inhibition and SPR inhibition; type: biochemical; settings: glucose non-binding control; PBS pH 7.5

T2 sequence (P17931 2-250): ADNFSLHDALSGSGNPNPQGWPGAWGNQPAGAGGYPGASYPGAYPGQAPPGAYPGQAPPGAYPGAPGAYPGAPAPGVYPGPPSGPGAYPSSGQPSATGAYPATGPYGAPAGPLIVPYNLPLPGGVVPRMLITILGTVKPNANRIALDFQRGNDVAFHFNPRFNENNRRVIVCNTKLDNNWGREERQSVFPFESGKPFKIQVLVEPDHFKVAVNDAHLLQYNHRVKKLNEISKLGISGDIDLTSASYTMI
T1 sequence (P09382 2-135): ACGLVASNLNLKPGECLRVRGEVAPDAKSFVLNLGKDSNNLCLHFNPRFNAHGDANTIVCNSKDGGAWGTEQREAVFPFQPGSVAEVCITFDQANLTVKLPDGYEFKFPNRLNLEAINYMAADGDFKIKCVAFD

| IC50 [1] [µM] | IC50 [2] [µM] | SMILES | no inhibition [3] |
| --- | --- | --- | --- |
| 296 ± 70 | 123 ± 3 | CC(=O)NCCOCCOCCNC(=O)CCC(=O)NCCN(CCNC(=O)CCC(N)=O)C(=O)CCc1cn([C@@H]2O[C@H](CO)[C@@H](O[C@@H]3O[C@H](CO)[C@H](O)[C@H](O)[C@H]3O)[C@H](O)[C@H]2O)nn1 [1b, Lac(1)-2-Ac] | – |
| – | – | CC(=O)NCCOCCOCCNC(=O)CCC(=O)NCCN(CCNC(=O)CCC(=O)NCCN(CCNC(=O)CCC(=O)NCCN(CCNC(=O)CCC(=O)NCCN(CCNC(=O)CCC(=O)NCCN(CCNC(=O)CCC(N)=O)C(=O)CCc1cn(CCO[C@H]2O[C@H](CO)[C@@H](O)[C@H](O)[C@H]2O)nn1)C(=O)CCC(=O)NCc1ccccc1)C(=O)CCc1cn(CCO[C@H]2O[C@H](CO)[C@@H](O)[C@H](O)[C@H]2O)nn1)C(=O)CCC(=O)NCc1ccccc1)C(=O)CCc1cn(CCO[C@H]2O[C@H](CO)[C@@H](O)[C@H](O)[C@H]2O)nn1 [10b, Glc(1,3,5)-Bz(2,4)-6-Ac] | nonbinding carbohydrate ligand (glucose, 9b-13b), we see no inhibition in both ELISA and SPR |
| – | – | CC(=O)NCCOCCOCCNC(=O)CCC(=O)NCCN(CCNC(=O)CCC(=O)NCCN(CCNC(=O)CCC(=O)NCCN(CCNC(=O)CCC(=O)NCCN(CCNC(=O)CCC(=O)NCCN(CCNC(=O)CCC(N)=O)C(=O)CCc1cn(CCO[C@H]2O[C@H](CO)[C@@H](O)[C@H](O)[C@H]2O)nn1)C(=O)CCC(=O)Nc1ccc(N)cc1)C(=O)CCc1cn(CCO[C@H]2O[C@H](CO)[C@@H](O)[C@H](O)[C@H]2O)nn1)C(=O)CCC(=O)Nc1ccc(N)cc1)C(=O)CCc1cn(CCO[C@H]2O[C@H](CO)[C@@H](O)[C@H](O)[C@H]2O)nn1 [11b, Glc(1,3,5)-pNH2Ph(2,4)-6-Ac] | nonbinding carbohydrate ligand (glucose, 9b-13b), we see no inhibition in both ELISA and SPR |
| – | – | CC(=O)NCCOCCOCCNC(=O)CCC(=O)NCCN(CCNC(=O)CCC(=O)NCCN(CCNC(=O)CCC(=O)NCCN(CCNC(=O)CCC(=O)NCCN(CCNC(=O)CCC(=O)NCCN(CCNC(=O)CCC(N)=O)C(=O)CCc1cn(CCO[C@H]2O[C@H](CO)[C@@H](O)[C@H](O)[C@H]2O)nn1)C(=O)CCC(=O)Nc1ccc(S(=O)(=O)O)cc1)C(=O)CCc1cn(CCO[C@H]2O[C@H](CO)[C@@H](O)[C@H](O)[C@H]2O)nn1)C(=O)CCC(=O)Nc1ccc(S(=O)(=O)O)cc1)C(=O)CCc1cn(CCO[C@H]2O[C@H](CO)[C@@H](O)[C@H](O)[C@H]2O)nn1 [12b, Glc(1,3,5)-pSO3H Ph(2,4)-6-Ac] | nonbinding carbohydrate ligand (glucose, 9b-13b), we see no inhibition in both ELISA and SPR |
